The values below come from ChEMBL document CHEMBL1201862, “PubChem BioAssay data set” (2004).

Some test systems named below: HOP-92; U-251; SNB-19; TK-10; RPMI-8226; SF-268; HCC 2998; SK-MEL-28; MOLT-4; SW-620; NCI-H522; HCT-15; EKVX; COLO 205; SF-295; NCI-H23; DU-145; Hs-578T; MCF7.
Assay in all cases: NCI-60 cell line screen, 48 h

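Five compound concentrations were applied to cells in 96-well plates for 48 hours; endpoints were derived by simple linear interpolation of the resulting dose-response curve. GI50 is the concentration that inhibits growth by half.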 Active and inactive are the calls of the source. No stated cut-off is given here; in the data, active = GI50 up to about 1.1 µM and inactive = higher. A value given as a limit tells only on which side of the number the result lay.

With `C/C(=N\O)c1sc(-n2nc(-c3ccccc3)cc2-c2ccccc2)nc1C`, the GI50 is > 10 µM (inactive) in the assay on HOP-92; 11.7 µM (inactive) in the assay on U-251; 12.2 µM (inactive) with SNB-19; > 10 µM (inactive) with TK-10; 12.2 µM (inactive) in the assay with RPMI-8226; 12.1 µM (inactive) with SF-268. In addition, the GI50 with HCC 2998 was 13.6 µM (inactive); in the assay with SK-MEL-28, 12.9 µM (inactive); in the assay on MOLT-4, 11.1 µM (inactive); in the assay on SW-620, 13.1 µM (inactive); in the assay on NCI-H522, 12.1 µM (inactive); in the assay on HCT-15 it was 13.9 µM. Also, the GI50 with EKVX is 6.35 µM (inactive); in the assay with COLO 205 it was > 10 µM (inactive); in the assay with SF-295 it was 14 µM (inactive); in the assay on NCI-H23, 8.15 µM (inactive).
Regarding `COc1c2c(cc3nc4ccccc4nc13)CCC(C(C)(C)O)C2` (stereo not drawn), the GI50 is 76.2 µM (inactive) with HOP-92; > 100 µM (inactive) in the assay with U-251; > 100 µM (inactive) in the assay on SNB-19; > 100 µM (inactive) in the assay on TK-10; > 100 µM (inactive) with SF-268; > 100 µM (inactive) in the assay on HCC 2998. The GI50 was > 100 µM (inactive) in the assay with SK-MEL-28; 32.4 µM (inactive) with MOLT-4; > 100 µM (inactive) with SW-620; 31.8 µM (inactive) in the assay on NCI-H522; over 100 µM with HCT-15; > 100 µM (inactive) with EKVX. For the same molecule, the GI50 is 69 µM (inactive) with COLO 205, > 100 µM (inactive) in the assay on SF-295 and 56.8 µM (inactive) in the assay with NCI-H23.
In the case of `Cc1nc2c(ccc3ncccc32)[nH]1`, the GI50 in the assay with HOP-92, in the assay on U-251, in the assay with SNB-19, in the assay with TK-10, in the assay with RPMI-8226 and in the assay with SF-268 was > 100 µM (inactive) each time. Also, the GI50 in the assay with HCC 2998 was > 100 µM (inactive); in the assay on SK-MEL-28, > 100 µM (inactive); with MOLT-4, > 100 µM (inactive); in the assay on SW-620, > 100 µM (inactive); in the assay on NCI-H522 it was > 100 µM (inactive); in the assay on HCT-15 it was over 100 µM. In addition, the GI50 in the assay with EKVX, in the assay on COLO 205, in the assay with SF-295 and in the assay on NCI-H23 was > 100 µM (inactive) throughout.
For `O=C1OC(c2ccccc2)=N/C1=C/C=C/c1ccco1`, the GI50 in the assay with HOP-92, in the assay with U-251, with SNB-19, in the assay with TK-10, in the assay on SF-268 and in the assay on HCC 2998 was > 100 µM (inactive) throughout. For the same molecule, the GI50 is > 100 µM (inactive) in the assay with SK-MEL-28; > 100 µM (inactive) in the assay with MOLT-4; > 100 µM (inactive) in the assay with SW-620; > 100 µM (inactive) in the assay on NCI-H522; over 100 µM in the assay on HCT-15; > 100 µM (inactive) with EKVX. Also, the GI50 in the assay with COLO 205, with SF-295 and in the assay with NCI-H23 was > 100 µM (inactive) in each case.
Take `N/N=C(\N)Nc1cccc2ccccc12`: the GI50 was 27.9 µM (inactive) in the assay with HOP-92; > 100 µM (inactive) in the assay with U-251; > 100 µM (inactive) with DU-145; > 100 µM (inactive) with SNB-19; > 100 µM (inactive) in the assay with TK-10; > 100 µM (inactive) in the assay on RPMI-8226. The GI50 with Hs-578T, with SF-268, with MCF7, in the assay with HCC 2998, in the assay on SK-MEL-28 and in the assay on MOLT-4 was > 100 µM (inactive) each time. For the same molecule, the GI50 with SW-620 is > 100 µM (inactive); with HCT-15, over 100 µM; in the assay on EKVX it was > 100 µM (inactive); in the assay with COLO 205 it was > 100 µM (inactive); in the assay with SF-295, > 100 µM (inactive); with NCI-H23, > 100 µM (inactive).
In the case of `CC(C)=CC(C(O)c1ccccc1)S(=O)(=O)c1nccn1C` (stereo not drawn), the GI50 with HOP-92, with U-251, in the assay on SNB-19, in the assay with TK-10, in the assay with RPMI-8226 and in the assay with SF-268 was > 100 µM (inactive) throughout. Also, the GI50 in the assay on HCC 2998 is > 100 µM (inactive); in the assay with SK-MEL-28 it was > 100 µM (inactive); in the assay on MOLT-4 it was > 100 µM (inactive); with SW-620 it was > 100 µM (inactive); with NCI-H522 it was > 100 µM (inactive); in the assay with HCT-15 it was over 100 µM. Also, the GI50 in the assay with EKVX, in the assay with COLO 205, with SF-295 and with NCI-H23 was > 100 µM (inactive) in each case.
For the molecule `COc1ccc(/C=C2/CCCC/C2=N/O)cc1`, the GI50 is 46.1 µM (inactive) in the assay with HOP-92; > 100 µM (inactive) in the assay with U-251; > 100 µM (inactive) in the assay on SNB-19; > 100 µM (inactive) in the assay with TK-10; > 100 µM (inactive) with RPMI-8226; 57.9 µM (inactive) in the assay on SF-268. For the same molecule, the GI50 was > 100 µM (inactive) in the assay on HCC 2998; > 100 µM (inactive) in the assay on SK-MEL-28; 42.2 µM (inactive) in the assay on MOLT-4; > 100 µM (inactive) in the assay with SW-620; 40.5 µM (inactive) in the assay on NCI-H522; over 100 µM in the assay with HCT-15. The GI50 was > 100 µM (inactive) in the assay on EKVX, > 100 µM (inactive) with COLO 205, > 100 µM (inactive) in the assay on SF-295 and 93.1 µM (inactive) in the assay with NCI-H23.
For the molecule `CCOC(=O)C(=O)Nc1ccc(Cl)c(C(F)(F)F)c1`, the GI50 in the assay on HOP-92 is < 0.01 µM (active); with U-251, > 100 µM (inactive); with SNB-19, > 100 µM (inactive); in the assay with TK-10, > 100 µM (inactive); in the assay with RPMI-8226 it was > 100 µM (inactive); in the assay on SF-268 it was > 100 µM (inactive). Also, the GI50 in the assay with HCC 2998 was > 100 µM (inactive); with SK-MEL-28 it was > 100 µM (inactive); in the assay with MOLT-4, > 100 µM (inactive); with SW-620 it was > 100 µM (inactive); in the assay with NCI-H522, > 100 µM (inactive); with HCT-15 it was over 100 µM. Also, the GI50 in the assay with EKVX, with COLO 205, in the assay on SF-295 and in the assay on NCI-H23 was > 100 µM (inactive) each time.
In the case of `O=C1c2c(nc3ccccc3c2-c2ccccc2)CN1Nc1ccccc1`, the GI50 in the assay with HOP-92, in the assay on TK-10, in the assay with RPMI-8226, with SF-268, in the assay on HCC 2998 and in the assay on MOLT-4 was > 100 µM (inactive) each time. The GI50 in the assay on SW-620, in the assay on NCI-H522, in the assay on EKVX and with COLO 205 was > 100 µM (inactive) each time.
`O=C1Nc2ccccc2/C1=c1\[nH]c(=O)/c(=C\c2ccc(OCc3ccccc3)cn2)[nH]c1=O`: the GI50 is 26.6 µM (inactive) with HOP-92; 17.9 µM (inactive) in the assay on U-251; 86.5 µM (inactive) in the assay on DU-145; 31.4 µM (inactive) with SNB-19; 22.4 µM (inactive) in the assay on TK-10; > 100 µM (inactive) in the assay on RPMI-8226. Also, the GI50 is 21.4 µM (inactive) in the assay on Hs-578T; 21.2 µM (inactive) with SF-268; > 100 µM (inactive) with MCF7; > 100 µM (inactive) in the assay on HCC 2998; > 100 µM (inactive) with SK-MEL-28; 52.8 µM (inactive) in the assay with MOLT-4. The GI50 with SW-620 is > 100 µM (inactive); in the assay on NCI-H522, 94.4 µM (inactive); in the assay with HCT-15, 41.1 µM; with EKVX, 86.7 µM (inactive); in the assay with COLO 205, > 100 µM (inactive); in the assay with SF-295, 16.8 µM (inactive). Besides, the GI50 in the assay with NCI-H23 was 30.7 µM (inactive).
For `C=C[C@]1(C)CCC2=C(CCC3C2(C)CCC[C@@]3(C)COC(C)=O)C1` (stereo partly drawn), the GI50 in the assay on HOP-92 is 19.5 µM (inactive); with U-251 it was 17.8 µM (inactive); with SNB-19 it was 17.6 µM (inactive); with TK-10 it was 25.8 µM (inactive); in the assay with RPMI-8226 it was 17.1 µM (inactive); in the assay with SF-268 it was 23.4 µM (inactive). Besides, the GI50 in the assay with HCC 2998 is 17.7 µM (inactive); with SK-MEL-28 it was 33.1 µM (inactive); in the assay on MOLT-4, 14.7 µM (inactive); with SW-620 it was 19.3 µM (inactive); in the assay with NCI-H522, 15.4 µM (inactive); in the assay on HCT-15 it was 16.8 µM. Further, the GI50 is 19.5 µM (inactive) in the assay with EKVX, 16.3 µM (inactive) in the assay on COLO 205, 17.8 µM (inactive) in the assay on SF-295 and 22 µM (inactive) in the assay with NCI-H23.
Take `COc1c(Cl)c2c(c(OC)c1OC)-c1ccc(OC)c(=O)c(Cl)c1C(NC(C)=O)CC2` (stereo not drawn): the GI50 in the assay on HOP-92 is 0.117 µM (active); in the assay with U-251, 0.235 µM (active); in the assay on SNB-19, 1.43 µM (inactive); in the assay with TK-10, 0.69 µM (active); in the assay with RPMI-8226, 0.337 µM (active); with SF-268 it was 0.212 µM (active). The GI50 with HCC 2998 was 0.182 µM (active); in the assay on SK-MEL-28, 0.288 µM (active); in the assay on MOLT-4, 0.345 µM (active); with SW-620, 0.12 µM (active); in the assay on NCI-H522, 0.148 µM (active); in the assay with HCT-15, 0.356 µM. For the same molecule, the GI50 in the assay with EKVX is 7.35 µM (inactive); with COLO 205, 0.194 µM (active); with SF-295, 0.14 µM (active); in the assay with NCI-H23, 0.269 µM (active).
On to `CC1CC2(CC[C@@H]1O)OCCO2` (stereo partly drawn), for which the GI50 in the assay on HOP-92, with U-251, in the assay on SNB-19, with TK-10, in the assay on RPMI-8226 and in the assay on HCC 2998 was > 100 µM (inactive) throughout. For the same molecule, the GI50 with MOLT-4 was > 100 µM (inactive); with SW-620, > 100 µM (inactive); in the assay with NCI-H522, > 100 µM (inactive); with HCT-15 it was over 100 µM; with EKVX it was > 100 µM (inactive); in the assay on COLO 205, > 100 µM (inactive). Further, the GI50 with SF-295 and with NCI-H23 was > 100 µM (inactive) in each case.
